What was measured:
[1] = Population pharmacokinetic (popPK) model developed on OSIBOOST trial plasma concentrations (NONMEM); type: in vivo, human; details: for CL/F, Population Estimate (RSE%) / V/F, Population Estimate (RSE%): allometrically scaled on bodyweight of 70 kg; for CL/F, Population Estimate (RSE%): exponent 0.75; for V/F, Population Estimate (RSE%): exponent 1; for CL/F, Bootstrap Median / V/F, Bootstrap Median: non-parametric bootstrap n = 1000
Experimental: The data used in this study were obtained from the OSIBOOST clinical trial (NCT03858491).[15] The trial was approved by an independent medical ethics committee (METC19‐013) and was conducted in accordance with the 1964 Helsinki declaration (and its amendments). All patients provided written informed consent. Patients were included from one academic medical center and a specialized tertiary referral center in the Netherlands (the Maastricht University Medical Centre and the Antoni van Leeuwenhoek hospital). […] After 21 days of concomitant treatment with cobicistat (to reach steady state), PK samples (pre‐dose, 0.5‐1.5 h, 2.5‐3.5 h, 7‐8 h) of the concomitant therapy were collected.
PK data were analyzed with NONMEM version 7.4.4, Perl‐speaks‐NONMEM (PsN) version 5.4.0, R version 4.4.2, and Rstudio version 2024.09.0. The packages xpose, tidyvpc, mrgsolve, and ggplot2 in R were used for plotting and simulations.
A base popPK model was developed with the data from osimertinib monotherapy, using the first‐order conditional estimation method with interaction (FOCE‐I). […] Parameter changes were tested with stepwise inclusion and backward elimination. A decrease of more than −3.84 ΔOFV (P < .05) was considered a significant improvement when a single parameter was added to nested models. For backward elimination, a stricter criterion of 6.63 ΔOFV (P < .01) was used when removing a parameter from the popPK model.[25] One‐compartment and two‐compartment models were tested to best describe the data. Exponential between subject variability (BSV) on the popPK parameters was explored in a step‐wise approach. Residual error was tested as an additional, proportional, and a combined error model.
Developed popPK models were evaluated based on successful minimization, change in objective function value (ΔOFV), numerical diagnostics, standard goodness of fit (GOF) plots, and conditional weighted residuals (CWRES) plots. The performance of the developed popPK models was assessed with prediction‐corrected visual predictive check (pcVPC) and normalized prediction distribution error (NPDE) plots.[27] For the final popPK model, the median parameter estimate and 95% confidence interval (CI) were obtained non‐parametric bootstrap procedure (n = 1000) and can be considered as an internal validation.[28], [29] Relative standard errors (RSE%) of estimated parameters were acceptable when <30%.[30] A condition number was considered acceptable if […].[30] Both η‐shrinkage and ε‐shrinkage were considered appropriate if <30%.[31]

[2] = cited from earlier work
[3] = cited from earlier work; remark: listed apart in the source

Row | SMILES | CL/F, Population Estimate (RSE%) [1] | V/F, Population Estimate (RSE%) [1] | CL/F, Bootstrap Median [1] | V/F, Bootstrap Median [1] | Increase of osimertinib exposure (mean AUC0‐24h) by cobicistat ([2]; 11 patients with Cmin,SS ≤ 195 µg/L, noncompartmental analysis) | Adverse events of cobicistat boosted osimertinib ([2]; 11 patients with low osimertinib exposure) | Increase in osimertinib exposure when combined with itraconazole [3] | Coefficient of variation (CV%) of the BSV on CL/F ([1]; in vivo)
1 | C=CC(=O)Nc1cc(Nc2nccc(-c3c[nH]c4ccccc34)n2)c(OC)cc1N(C)CCN(C)C [AZ5104] | 47.3 (7.8%) L/h | 184 (48.5%) L | 46.3 L/h | 181 L |  |  |  | 
2 | CC(C)c1nc(CN(C)C(=O)N[C@@H](CCN2CCOCC2)C(=O)N[C@H](CC[C@H](Cc2ccccc2)NC(=O)OCc2cncs2)Cc2ccccc2)cs1 [cobicistat] |  |  |  |  | 50% | without any grade ≥3 adverse events (AEs) or new safety signals |  | 
3 | CCC(C)n1ncn(-c2ccc(N3CCN(c4ccc(OCC5COC(Cn6cncn6)(c6ccc(Cl)cc6Cl)O5)cc4)CC3)cc2)c1=O (stereo not drawn) [itraconazole] |  |  |  |  |  |  | 24% | 
4 | C=CC(=O)Nc1cc(Nc2nccc(-c3cn(C)c4ccccc34)n2)c(OC)cc1N(C)CCN(C)C [osimertinib] | 19.0 (8.5%) L/h | 990 (29%) L | 19.0 L/h | 966 L |  |  |  | 21.5%

Reference: PMC12649290 (Journal of Clinical Pharmacology, 2025)
